From patent US20020103169A1, “Chemical derivatives and use thereof as antitelomerase agents” (priority 2000, published 2002) come the findings set out here.

Like-named read-outs stand apart in the source and are kept apart here.

Data set [1] relates to human telomerase. Briefly: Telomerase activity assay (TRAP) with HL60 cell extract. The format is biochemical. To be noted: HL60 extract enriched in telomerase activity, TS extension followed by PCR. The method, then:
The extract was stored at -80° C. […] ID NO: 3).

The test system of data set [2] is G-quadruplex, oligonucleotide GGGTTAGGGTTAGGGTTAGGG (human telomeric motif). Put plainly: Fluorescence Tm: G-quadruplex stabilization of FAM+DABCYL telomeric oligonucleotide. To be noted: product 1 μM, oligonucleotide 0.2 μM, 0.1 M LiCl, 10 mM sodium cacodylate pH 7.6; reference Tm 44° C. The format is binding. From the text: The G-quadruplex stabilizing activity can be determined with a method using the formation of a complex with fluorescein, for which the experimental protocol is described below. The compounds of the present invention can thus be used as a fluorescent probe for determining the presence of G-quadruplexes.
All the oligonucleotides, modified or unmodified, were synthesized by Eurogentec SA, Seraing, Belgium. The FAM+DABCYL oligonucleotide carries the catalogue reference OL-0371-0802 and has the sequence: […] (SEQ ID NO: 1), corresponding to 3.5 repeats of the human telomeric motif (strand rich in G). The fluorescein is attached to the 5′ end and the DABCYL to the 3′ end, via the chemical arms described by Eurogentec. The concentration of the samples was verified by spectrophotometry, recording the absorbance spectrum between 220 nm and 700 nm and using the molar extinction coefficient provided by the supplier. […]
All the measurements of fluorescence were carried out on a Spex Fluorolog DM1B apparatus, using an excitation line width of 1.8 nm and an emission line width of 4.5 nm. […] The oligonucleotide alone was analysed at 20, 30, 40, 50, 60, 70, and 80° C. The emission spectra were recorded using an excitation wavelength of 470 nm. The excitation spectra were recorded using either 515 nm or 588 nm as the emission wavelength. […] When present, this juxtaposition caused the aforementioned phenomenon of extinction of fluorescence, which was used for determining the presence of a G-quadruplex.
A stock solution of oligonucleotide at the strand concentration of 0.2 μM in a 0.1 M LiCl, 10 mM sodium cacodylate buffer, pH 7.6, was prepared beforehand, heated briefly at 90° C. and slowly cooled to 20° C., and then distributed, in 600 μl aliquots, into the fluorescence cuvettes. […]
Each experiment allows the measurement of only one sample. […] During this time, the fluorescence was measured simultaneously at two emission wavelengths (515 nm and 588 nm) using 470 nm as the excitation wavelength. […]

Data set [3] has as its system A549 cells. Put plainly: Cytotoxic activity on human tumor line, neutral red, 96 hours. In kind it is cell-based. Here is the method:
The cells in the exponential growth phase were trypsinized, washed in 1X PBS and seeded into 96-well microplates (Costar) in a proportion of 4×10^4 cells/ml (0.2 ml/well). The cells were then incubated for 96 hours in the presence of varying concentrations of product to be tested (10,1, 0.1, and 0.01 μg/ml, each point in quadruplicate). 16 hours before the end of the incubation, 0.02% (final concentration) of neutral red was added to each well. At the end of the incubation, the cells were washed with IX PBS and lysed with 1% of sodium laurylsulphate. The cellular incorporation of the dye, which reflects cell growth, was evaluated by spectrophotometry at a wavelength of 540 nm for each sample, using a Dynatech MR5000 reader machine.

On to `Br.CC[n+]1c(-c2ccccc2)c2c(N=Nc3cccc(C(=N)N)c3)c(N)ccc2c2ccc(N)cc21.[Br-]` [Example 2, 8-(3-Amidinophenyl)diazo-2,7-diamino-10-ethyl-9-phenylphenanthridinium bromide hydrobromide], for which the midpoint of inhibition in data set [1], the IC50, lay at 97 nM. Besides, in data set [2], the “Fluorescence Δ Tm” value worked out at 7.9 °C.

Turning to “7-Amino-2-(2-amino-1,6-dimethylpyrimidinio-4-yl)-(4-aminophenyl)-10-ethylphenanthridinium bromide [Example 3]”, the IC50 (usually the concentration needed to halve the response being measured) in data set [1] was determined as 47 nM; in data set [3], 13400 nM. The “Fluorescence Δ Tm” value in data set [2] was 9.6 °C.

Regarding `CC[n+]1c(-c2ccccc2)c2cc(NN=Nc3cccc(C(=N)N)c3)ccc2c2ccc(N)cc21.Cl.[Cl-]` [Example 1, 7-(3-amidinophenyl)diazoamino-2-amino-10-ethyl-9-phenylphenanthridinium chloride hydrochloride], the IC50 in data set [1] was 19 nM; in data set [3] (96 hours incubation, neutral red incorporation, read-out: A459 Cytotox IC50), 3380 nM. Further, the “Fluorescence Δ Tm” value in data set [2] stood at 9.7 °C.
